PMC12679539, “Synthesis and evaluation of nitroheterocyclic aromatic adamantane amides with trypanocidal activity. Part II” (RSC Medicinal Chemistry, 2025)

tested on: L. infantum promastigotes; experiment: Activity against Leishmania infantum promastigotes (resazurin assay); assay type: cell-based, Leishmania infantum (MHOM/MA/67/ITMAP-263); conditions: Leishmania infantum; promastigotes, 72 h; 95% CI in brackets
Description: Promastigotes from the L. infantum strain (MHOM/MA/67/ITMAP-263) were cultivated in 5 ml of Schneider's insect medium, which was supplemented with 10% heat-inactivated fetal bovine serum (FBS), 200 U ml^−1 of penicillin/streptomycin, 6 μg ml^−1 of phenol red, and 5 mM of HEPES. The cultures were maintained in an incubator at 27 °C and diluted to a concentration of 2 × 10^5 cells per ml every 5 days. For the assays the parasites used were equivalent to late/log with two or three days of culture.
The efficacy of the compounds against L. infantum promastigotes was evaluated using a resazurin-based assay. Parasites were added to 100 μl of serial dilutions of the compounds in supplemented complete medium at a cell density of 5 × 10^5 ml^−1. As a quality control, a dose–response curve with the antileishmanial drug miltefosine was included in all assays. The final volume of each assay was 200 μl per well, and each condition was tested in duplicate. After a 72-hour incubation under specific conditions for each parasite, 20 μl of a 0.5 mM resazurin solution was added, and the plates were incubated for an additional 4 hours under the same conditions. Fluorescence was measured at 544 nm for excitation and 590 nm for emission using a Synergy 2 Multi-Mode Reader (Biotek, Winooski, VT, USA). Results were expressed as the percentage of parasite growth inhibition compared to controls (untreated parasites) and represent the average of at least three independent experiments. The effect was evaluated by determining the IC50 value (the concentration required to inhibit 50% growth), calculated using non-linear regression curves via GraphPad Prism version 8.1.1 for Windows (GraphPad Software, San Diego, CA, USA).

Structure (SMILES)	IC50 [µM]
O=C(Cn1ccnc1[N+](=O)[O-])NCc1ccc(C2C3CC4CC(C3)CC2C4)cc1 (centres unmarked) [4b, N-[4-(2-Adamantyl)benzyl]-2-(2-nitro-1H-imidazol-1-yl)acetamide]	> 40
O=C(Cn1ccnc1[N+](=O)[O-])Nc1ccc(C23CC4CC(CC(C4)C2)C3)cc1 [3a, N-[4-(1-Adamantyl)phenyl]-2-(2-nitro-1H-imidazol-1-yl)acetamide]	0.7
O=C(Cn1ccnc1[N+](=O)[O-])NCc1ccc(C23CC4CC(CC(C4)C2)C3)cc1 [3b, N-[4-(1-Adamantyl)benzyl]-2-(2-nitro-1H-imidazol-1-yl)acetamide]	13.8
O=C(NCc1ccc(C23CC4CC(CC(C4)C2)C3)cc1)c1ccc([N+](=O)[O-])o1 [1a]	3.46
O=C(Nc1ccc(C2C3CC4CC(C3)CC2C4)cc1)c1ccc([N+](=O)[O-])o1 (centres unmarked) [2a, N-[4-(2-Adamantyl)phenyl]-5-nitrofuran-2-carboxamide]	0.12

same assay, conditions: THP-1 CC50 / L. infantum promastigote IC50

Structure (SMILES)	SI (promastigotes) CC50/Li IC50
O=C(NCc1ccc(C23CC4CC(CC(C4)C2)C3)cc1)c1ccc([N+](=O)[O-])o1 [1a]	SI > 29

tested on: bloodstream-form Trypanosoma brucei; experiment: Activity against bloodstream-form Trypanosoma brucei (Alamar Blue growth inhibition); assay type: cell-based, Trypanosoma brucei (strain 427); conditions: Trypanosoma brucei; bloodstream form; concentration that inhibits growth by 50%; read-out: T. brucei IC50
Description: (§1) Bloodstream form T. brucei (strain 427) were cultured at 37 °C in modified Iscove's medium. Trypanocidal activity was assessed by growing parasites in microtiter plates in the presence of various drug concentrations. […] The plates were incubated for 48 hours at 37 °C and 20 μL Alamar Blue was then added to each well. After an additional overnight incubation, the fluorescence was determined using a Gemini fluorescent plate reader (Molecular Devices). Inhibition of growth was calculated by comparison with control values and IC50 and IC90 values were determined in triplicate using linear regression analysis.

Structure (SMILES)	IC50 [nM]
O=C(Nc1ccc(C2C3CC4CC(C3)CC2C4)cc1)c1ccc([N+](=O)[O-])o1 (centres unmarked) [2a, N-[4-(2-Adamantyl)phenyl]-5-nitrofuran-2-carboxamide]	130 ± 40

same assay, conditions: Trypanosoma brucei; bloodstream form; concentration that inhibits growth by 90%; read-out: T. brucei IC90

Structure (SMILES)	IC90 [nM]
O=C(Nc1ccc(C2C3CC4CC(C3)CC2C4)cc1)c1ccc([N+](=O)[O-])o1 (centres unmarked) [2a, N-[4-(2-Adamantyl)phenyl]-5-nitrofuran-2-carboxamide]	330 ± 20

same assay, conditions: ratio of IC50 values obtained with L6 cells and T. brucei

Structure (SMILES)	S.I. (selectivity index)
O=C(Nc1ccc(C2C3CC4CC(C3)CC2C4)cc1)c1ccc([N+](=O)[O-])o1 (centres unmarked) [2a, N-[4-(2-Adamantyl)phenyl]-5-nitrofuran-2-carboxamide]	4

tested on: not listed separately; experiment: Cytotoxicity on THP-1-derived macrophages (MTT assay); assay type: cell-based; conditions: human, THP-1-derived macrophages (PMA-differentiated), value or interval
Description: The THP-1 cell line, a human leukemia line (ATCC® TIB-202™), was cultured in RPMI-1640 medium supplemented with 10% heat-inactivated fetal bovine serum (FBS), 2 mM. L-Glutamine, 100 IU mL^−1 penicillin/streptomycin, and 20 mM HEPES. The cells were maintained in a humidified incubator at 37 °C with 5% CO2. Subculturing was performed every three days, using 20 mL of media at a concentration of 2 × 10^5 cells per mL in a T75 flask. All cell culture reagents were purchased from Lonza Bioscience (Morrisville, NC).
The cytotoxicity of the compounds on THP-1-derived macrophages was evaluated using the colorimetric MTT assay (3-(4,5-dimethylthiazol-2-yl)-2,5-diphenyltetrazolium bromide), as described in Magoulas et al. (2021).[28] THP-1 cells were suspended in complete RPMI medium at a density of 1 × 10^6 cells per mL, and 100 μL of this suspension was seeded into each well of a 96-well plate. The cells were differentiated into macrophages by adding 40 ng mL^−1 of phorbol-myristate 13-acetate (PMA, Sigma, Saint Louis, MI, USA) for 24 hours, followed by replacement with fresh medium for an additional 24 hours. Subsequently, the cells were incubated with 100 μL of various compounds, diluted in complete RPMI medium, at concentrations ranging from 100 to 12.5 μM. Each condition was tested in triplicate. After 72 hours of incubation at 37 °C with 5% CO2, the medium was removed, and 200 μL of a 0.5 mg mL^−1 MTT solution, diluted in RPMI, was added to each well. The plates were incubated for an additional 4 hours. Following this incubation, 160 μL of the medium was removed and replaced with 160 μL of 2-propanol. Absorbance was measured at 570 nm using a Synergy 2 Multi-Mode Reader (Biotek, Winooski, VT, USA). Cytotoxicity was determined by presenting the CC50 (the concentration of the drug that reduces cell viability by 50%) interval or by calculating the CC50 value through non-linear regression analysis using GraphPad Prism version 8.1.1 for Windows (GraphPad Software, San Diego, CA, USA). The results represent the average of at least three independent experiments.

Structure (SMILES)	CC50 at 72 h [nM]
O=C(Cn1ccnc1[N+](=O)[O-])NCc1ccc(C2C3CC4CC(C3)CC2C4)cc1 (centres unmarked) [4b, N-[4-(2-Adamantyl)benzyl]-2-(2-nitro-1H-imidazol-1-yl)acetamide]	> 100000
O=C(Cn1ccnc1[N+](=O)[O-])Nc1ccc(C23CC4CC(CC(C4)C2)C3)cc1 [3a, N-[4-(1-Adamantyl)phenyl]-2-(2-nitro-1H-imidazol-1-yl)acetamide]	25000 to 100000
O=C(Cn1ccnc1[N+](=O)[O-])NCc1ccc(C23CC4CC(CC(C4)C2)C3)cc1 [3b, N-[4-(1-Adamantyl)benzyl]-2-(2-nitro-1H-imidazol-1-yl)acetamide]	50000 to 100000
O=C(NCc1ccc(C23CC4CC(CC(C4)C2)C3)cc1)c1ccc([N+](=O)[O-])o1 [1a]	> 100000
O=C(Nc1ccc(C2C3CC4CC(C3)CC2C4)cc1)c1ccc([N+](=O)[O-])o1 (centres unmarked) [2a, N-[4-(2-Adamantyl)phenyl]-5-nitrofuran-2-carboxamide]	1560 to 6250

tested on: T. cruzi epimastigotes; experiment: Activity against Trypanosoma cruzi epimastigotes (Alamar Blue growth inhibition); assay type: cell-based, Trypanosoma cruzi (strain CL Brener); conditions: CL Brener
Description: as §1, with “Trypanocidal” for “Bloodstream form T. brucei (strain 427) were cultured at 37 °C in modified Iscove's medium. Trypanocidal”, “4 days” for “48 hours”, “28” for “37”, “Blue (Biosource UK Ltd)” for “Blue”, “3 days” for “overnight”

Structure (SMILES)	IC50 [nM]	IC90 [nM]
O=C(Nc1ccc(C2C3CC4CC(C3)CC2C4)cc1)c1ccc([N+](=O)[O-])o1 (centres unmarked) [2a, N-[4-(2-Adamantyl)phenyl]-5-nitrofuran-2-carboxamide]	550 ± 50	1200 ± 30

tested on: L6 cells; experiment: Cytotoxic activity against rat skeletal myoblast L6 cells (Alamar Blue); assay type: cell-based; conditions: 120 h, cytotoxicity, 5 days
Description: The cytotoxicity against mammalian cells was assessed using microtitre plates. Briefly, L6 cells (a rat skeletal muscle line) were seeded at 1 × 10^4 mL^−1 in 200 μL of RPMI-1640 growth medium (with 10% fetal calf serum) containing 7 different compound concentrations in a range previously established to encompass both the IC50 and IC90 values. The plates were incubated for 5 days at 37 °C and 20 μL Alamar Blue (Biosource Ltd, Wilton, North Yorkshire England.) was then added to each well. After an additional 8 hours incubation, the fluorescence was determined using a Gemini fluorescent plate reader (Molecular Devices). Inhibition of growth was calculated by comparison with control values and IC50 and IC90 values were determined in triplicate using linear regression analysis.

Structure (SMILES)	IC50 [nM]
O=C(Nc1ccc(C2C3CC4CC(C3)CC2C4)cc1)c1ccc([N+](=O)[O-])o1 (centres unmarked) [2a, N-[4-(2-Adamantyl)phenyl]-5-nitrofuran-2-carboxamide]	470 ± 70
